Counter-ions that a name gives are not always drawn.
Each compound was assayed against T1, CA (Human immunodeficiency virus type 1 group M subtype B, UniProt P12493) (assay: AlphaScreen: inhibition of CAI-biotin peptide binding to CA-GST). Details: inhibition of CAI binding to CA (CA-GST fusion); compounds screened at 0.5-100 µM; read-out: α screen IC50.
T1 construct: a fusion protein of CA with glutathione-S-transferase (CA-GST)
Design: species or system HIV-1
Procedure: The AlphaScreen experiments are performed using Perkin Elmer Enspire plate reader in white 96-well ProxiPlates and PBS supplemented with 0.05% Tween20, 2mM DTT, 2% DMSO. First, Streptavidin-coated Donor beads are used to capture the CAI-biotin peptide. In the other solution, a fusion protein of CA with glutathione-S-transferase (CA-GST) is mixed with GSH Acceptor beads. Both mixtures were incubated and then mixed together. To test the ability of prepared organic compounds to inhibit the CAI binding to CA, they are screened at concentrations between 0.5-100 µM and IC50 values are calculated from the influenced signals.
Upon illumination by laser at 680 nm, Donor beads containing the photosensitizer phthalocyanine convert ambient oxygen to an excited form of singlet oxygen ^1O2. Singlet oxygen can within its half-life of ∼ 4µs diffuse approximately 200 nm in solution. If an Acceptor bead is within that proximity, which is mostly upon CA:CAI interaction, energy is transferred from the singlet oxygen to thioxene derivates within the Acceptor and signal at 520 - 620 nm is emitted. […] Table 4: Synthesized and tested compounds
`CCOC(=O)c1ccc(Nc2ccnc(-c3cccnc3)n2)cc1` [AMR-722, ethyl4-((2-(pyridin-3-yl)pyrimidin-4-yl)amino)benzoate hydrochloride] showed an IC50 of 19 µM.
`Fc1cc(Nc2ccnc(-c3cccnc3)n2)cc(F)c1F` [KP-351, N-(3,4,5-trifluorophenyl)-2-(pyridin-3-yl)pyrimidin-4-amine dihydrochloride] showed an IC50 of 60 µM.
In the case of `CC(=O)c1cccc(Nc2cc(C)nc(-c3cccnc3)n2)c1` [AMR-830, 1-(3-((6-methyl-2-(pyridin-3-yl)pyrimidin-4-yl)amino)phenyl)ethanone hydrochloride], the IC50 is reported as 10 µM.
`O=C(NCCF)c1cc(Nc2ccnc(-c3cccnc3)n2)ccc1F` [AMR-816, 2-fluoro-N-(2-fluoroethyl)-5-((2-(pyridin-3-yl)pyrimidin-4-yl)amino)benzamide dihydrochloride] gave an IC50 of 68 µM.
With `CCOC(=O)c1ccc(Nc2cc(-c3cccnc3Cl)ncn2)cc1` [KP-369, Ethyl 4-{[6-(2-chloropyridin-3-yl)pyrimidin-4-yl]amino}benzoate hydrochloride] the IC50 was > 100 µM.
With `CCOC(=O)c1ccccc1Nc1ccnc(-c2cccnc2)n1` [KP-347, Ethyl 2-{[2-(pyridm-3-yl)pyrimidm-4-yl]amino}benzoate hydrochloride] the IC50 was > 100 µM.
Compound `CCOC(=O)c1ccccc1Nc1ccnc(-c2cncc(Br)c2)n1` [KP-363, Ethyl 2-{[2-(5-bromopyridin-3-yl)pyrimidin-4-yl]amino}benzoate hydrochloride] has an IC50 of 58 µM.
`CCOC(=O)c1ccc(Nc2cc(C(F)(F)F)nc(-c3cccnc3)n2)cc1` [AMR-742, ethyl 4-((2-(pyridin-3-yl)-6-(trifluoromethyl)pyrimidin-4-yl)amino)benzoate hydrochloride] was tested, and the IC50 was > 100 µM.
Work on `CCOC(=O)c1ccc(Nc2ccnc(-c3ccncc3)n2)cc1` [AMR-747, ethyl 4-((2-(pyridin-4-yl)pyrimidin-4-yl)amino)benzoate hydrochloride] yielded an IC50 of 28 µM.
In the case of `COc1cc(Nc2cc(-c3cccnc3Cl)ncn2)cc(OC)c1OC` [KP-377, 6-(2-Chloropyridin-3-yl)-N-(3,4,5-trimethoxyphenyl)pyrimidin-4-amine hydrochloride], the IC50 is reported as > 100 µM.
Work on `Cc1cc(Nc2ccc(C(=O)NCCF)cc2)nc(-c2cccnc2)n1` [AMR-795, N-(2-fluoroethyl)-4-((6-methyl-2-(pyridin-3-yl)pyrimidin-4-yl)amino)benzamide hydrochloride] yielded an IC50 of 8 µM.
`Fc1ccc(Nc2ccnc(-c3cccnc3)n2)cc1F` [KP-343, N-(3,4-difluorophenyl)-2-(pyridin-3-yl)pyrimidin-4-amine dihydrochloride] was tested, and the IC50 was 38 µM.
With `Cc1cc(Nc2ccc(C(=O)NCCF)cc2F)nc(-c2cccnc2)n1` [AMR-829, 3-fluoro-N-(2-fluoroethyl)-4-((6-methyl-2-(pyridin-3-yl)pyrimidin-4-yl)amino)benzamide hydrochloride] the IC50 was 15 µM.
With `Fc1ccc(Nc2cc(-c3cccnc3Cl)ncn2)cc1F` [KP-374, 6-(2-Chloropyridin-3-yl)-N-(3,4-difluorophenyl)pyrimidin-4-amine hydrochloride] the IC50 was > 100 µM.
`Cc1ccc(NC(=O)c2cccc(C(F)(F)F)c2)cc1Nc1cc(-c2cccnc2Cl)ncn1` [KP-380, N-(3-(6-(2-chloropyridin-3-yl)pyrimidin-4-ylamino)-4-methylphenyl)-3-(trifluoromethyl)benzamide hydrochloride] was tested, and the IC50 was > 100 µM.
With `CC(=O)c1ccc(Nc2ccnc(-c3ccncc3)n2)cc1` [AMR-748, 1-(4-((2-(pyridin-4-yl)pyrimidin-4-yl)amino)phenyl)ethanone hydrochloride] the IC50 was > 100 µM.
In the case of `CC(=O)c1ccc(F)c(Nc2cc(C)nc(-c3cccnc3)n2)c1` [AMR-838, 1-(4-fluoro-3-((6-methyl-2-(pyridin-3-yl)pyrimidin-4-yl)amino)phenyl)ethanone hydrochloride], the IC50 is reported as > 100 µM.
Compound `O=C(NCCF)c1ccc(Nc2ccnc(-c3cccnc3)n2)c(F)c1` [AMR-825, 3-fluoro-N-(2-fluoroethyl)-4-((2-(pyridin-3-yl)pyrimidin-4-yl)amino)benzamide hydrochloride] has an IC50 of 73 µM.
`O=C(O)c1ccc(Nc2ccnc(-c3cccnc3)n2)cc1Cl` [AMR-802, 2-chloro-4-((2-(pyridin-3-yl)pyrimidin-4-yl)amino)benzoic acid hydrochloride] gave an IC50 of 25 µM.
With `Fc1ccc(Nc2ccnc(-c3cncc(Br)c3)n2)cc1F` [KP-355, 2-(5-Bromopyridin-3-yl)-N-(3,4-difluorophenyl)pyrimidin-4-amine hydrochloride] the IC50 was > 100 µM.
`O=C(NCCF)c1ccc(Nc2ccnc(-c3cccnc3)n2)cc1` [AMR-792, N-(2-fluoroethyl)-4-((2-(pyridin-3-yl)pyrimidin-4-yl)amino)benzamide hydrochloride] gave an IC50 of 34 µM.
In the case of `Cc1cc(Nc2ccc(C(=O)NCCF)c(F)c2)nc(-c2cccnc2)n1` [AMR-828, 2-fluoro-N-(2-fluoroethyl)-4-((6-methyl-2-(pyridin-3-yl)pyrimidin-4-yl)amino)benzamide hydrochloride], the IC50 is reported as 3 µM.
With `CCOC(=O)c1ccc(Nc2ccnc(-c3cncc(Br)c3)n2)cc1` [KP-352, Ethyl 4-{[2-(5-bromopyridin-3-yl)pyrinudm-4-yl]amino}benzoate hydrochloride] the IC50 was > 100 µM.
With `CC(=O)c1cc(Nc2cc(C)nc(-c3cccnc3)n2)ccc1F` [AMR-839, 1-(2-fluoro-5-((6-methyl-2-(pyridin-3-yl)pyrimidin-4-yl)amino)phenyl)ethanone hydrochloride] the IC50 was 9 µM.
With `Cc1ccc(NC(=O)c2cccc(C(F)(F)F)c2)cc1Nc1ccnc(-c2cncc(Br)c2)n1` [KP-384, N-(3-(2-(5-bromopyridin-3-yl)pyrimidin-4-ylamino-4-methylphenyl)-3-(trifluoromethyl)benzamide hydrochloride] the IC50 was > 100 µM.
For `O=C(NCC(F)(F)F)c1ccc(Nc2ccnc(-c3cccnc3)n2)cc1` [AMR-771, 4-((2-(pyridin-3-yl)pyrimidin-4-yl)amino)-N-(2,2,2-trifluoroethyl)benzamide hydrochloride], the IC50 was 55 µM.
Compound `Fc1ccc(Nc2ccnc(-c3ccncc3)n2)cc1F` [KP-360, N-(3,4-difluorophenyl)-2-(pyridin-4-yl)pyrimidin-4-amine dihydrochloride] has an IC50 of 81 µM.
`Cc1ccc(NC(=O)c2cccc(C(F)(F)F)c2)cc1Nc1ccnc(-c2cccnc2)n1` [KP-385, N-(3-(2-(pyridin-3-yl)pyritnidin-4-ylamino)-4-methylphenyl)-3-(trifluoromethyl)benzamide hydrochloride] was tested, and the IC50 was > 100 µM.
In the case of `Cn1nnc2cc(Nc3ccnc(-c4cncc(Br)c4)n3)ccc21` [KP-364, N-[2-(5-bromopyridin-3-yl)pyrimidin-4-yl]-1-methyl-1H-benzotriazol-5-amine dihydrochloride], the IC50 is reported as 14 µM.
For `CCOC(=O)c1ccc(Nc2ccnc(-c3cccnc3)n2)c(F)c1` [AMR-823, ethyl 3-fluoro-4-((2-(pyridin-3-yl)pyrimidin-4-yl)amino)benzoate hydrochloride], the IC50 was 30 µM.
`CC(=O)c1ccc(Nc2cc(C)nc(-c3cccnc3)n2)cc1` [AMR-794, 1-(4-((6-methyl-2-(pyridin-3-yl)pyrimidin-4-yl)amino)phenyl)ethanone hydrochloride] was tested, and the IC50 was 12 µM.
`O=C(NCCF)c1ccc(Nc2ccnc(-c3cccnc3)n2)cc1F` [AMR-831, 2-fluoro-N-(2-fluoroethyl)-4-((2-(pyridin-3-yl)pyrimidin-4-yl)amino)benzamide hydrochloride] was tested, and the IC50 was 43 µM.
In the case of `CC(=O)c1ccc(Nc2cc(C(F)(F)F)nc(-c3cccnc3)n2)cc1` [AMR-743, 1-(4-((2-(pyridin-3-yl)-6-(trifluoromethyl)pyrimidin-4-yl)amino)phenyl)ethanone hydrochloride], the IC50 is reported as > 100 µM.
For `CCOC(=O)c1ccc(Nc2ccnc(-c3cccnc3)n2)cc1Cl` [hydrochloride], the IC50 was 31 µM.
`O=C(NCCF)c1ccc(Nc2ccnc(-c3ccncc3)n2)cc1` [AMR-763, N-(2-fluoroethyl)-4-((2-(pyridin-4-yl)pyrimidin-4-yl)amino)benzamide hydrochloride] was tested, and the IC50 was > 100 µM.
With `FCCNc1ccnc(-c2ccncc2)n1` [AMR-758, N-(2-fluoroethyl)-2-(pyridin-4-yl)pyrimidin-4-amine hydrochloride] the IC50 was > 100 µM.
Work on `CC(=O)c1ccc(Nc2ccnc(-c3cccnc3)n2)cc1` [AMR-725, 1.-(4-((2-(pyridin-3-yl)pyrimidin-4-yl)amino)phenyl)ethanone hydrochloride] yielded an IC50 of 53 µM.
For `CCN(CC)CCNC(=O)c1ccc(Nc2ccnc(-c3cccnc3)n2)cc1` [AMR-822, N-(2-(diethylamino)ethyl)-4-((2-(pyridin-3-yl)pyrimidin-4-yl)amino)benzamide dihydrochloride], the IC50 was > 100 µM.
Compound `CC(=O)c1cccc(Nc2ccnc(-c3cccnc3)n2)c1` [AMR-726, 1-(3-((2-(pyridin-3-yi)pyrimidin-4-yl)amino)phenyl)ethanone hydrochloride] has an IC50 of 39 µM.
In the case of `CCOC(=O)c1cccc(Nc2ccnc(-c3ccncc3)n2)c1` [AMR-759, ethyl 3-((2-(pyridin-4-yl)pyrimidin-4-yl)amino)benzoate hydrochloride], the IC50 is reported as > 100 µM.
`Cc1cc(Nc2cc(C(=O)NCCF)ccc2F)nc(-c2cccnc2)n1` [AMR-832, 4-fluoro-N-(2-fluoroethyl)-3-((6-methyl-2-(pyrldin-3-yl)pyrimidin-4-yl)amino)benzamide hydrochloride] showed an IC50 of 52 µM.

— patent EP2769722A1 (Ruprecht-Karls-Universität Heidelberg, priority 2013, dated 2014)
